Measurements published in ChEMBL document CHEMBL4041544, “Discovery of new selective glucocorticoid receptor agonist leads” (Bioorg Med Chem Lett, 2017).

Experiments:
[1] = molecular target: T1, Glucocorticoid receptor (Homo sapiens, UniProt P04150); assay: Transactivation activity at glucocorticoid receptor in human HeLa cells assessed as induction of MMTV promoter activity by luciferase reporter gene assay; format: cell-based
T1 sequence (P04150 whole entry): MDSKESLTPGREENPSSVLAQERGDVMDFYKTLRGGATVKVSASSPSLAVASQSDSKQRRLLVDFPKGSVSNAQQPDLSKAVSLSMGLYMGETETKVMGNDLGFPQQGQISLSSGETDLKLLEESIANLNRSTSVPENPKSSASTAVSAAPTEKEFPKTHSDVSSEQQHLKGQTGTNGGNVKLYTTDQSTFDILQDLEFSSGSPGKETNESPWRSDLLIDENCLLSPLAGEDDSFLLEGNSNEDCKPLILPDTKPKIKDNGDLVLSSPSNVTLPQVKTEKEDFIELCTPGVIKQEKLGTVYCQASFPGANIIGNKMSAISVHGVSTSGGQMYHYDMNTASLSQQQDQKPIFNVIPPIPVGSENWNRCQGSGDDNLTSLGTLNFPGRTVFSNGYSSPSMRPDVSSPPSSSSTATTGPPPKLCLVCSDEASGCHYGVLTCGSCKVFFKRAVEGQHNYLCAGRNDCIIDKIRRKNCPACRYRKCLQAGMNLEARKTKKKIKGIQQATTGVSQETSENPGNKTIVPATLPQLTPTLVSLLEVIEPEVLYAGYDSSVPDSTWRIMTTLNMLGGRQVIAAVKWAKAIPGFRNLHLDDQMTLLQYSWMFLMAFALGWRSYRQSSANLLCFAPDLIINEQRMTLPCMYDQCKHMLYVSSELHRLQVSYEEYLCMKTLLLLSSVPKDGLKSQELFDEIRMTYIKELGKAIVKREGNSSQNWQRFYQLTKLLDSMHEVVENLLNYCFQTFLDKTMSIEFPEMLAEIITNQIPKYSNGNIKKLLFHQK

[2] = Stability in human liver microsomes assessed as drug recovery after 30 mins; format: ADME, microsome; conditions: read-out: Drug recovery
[3] = molecular target: T2, Progesterone receptor (Homo sapiens, UniProt P06401); assay: Binding affinity to recombinant human progesterone receptor expressed in baculovirus infected sf9 cells
T2 sequence (P06401 whole entry): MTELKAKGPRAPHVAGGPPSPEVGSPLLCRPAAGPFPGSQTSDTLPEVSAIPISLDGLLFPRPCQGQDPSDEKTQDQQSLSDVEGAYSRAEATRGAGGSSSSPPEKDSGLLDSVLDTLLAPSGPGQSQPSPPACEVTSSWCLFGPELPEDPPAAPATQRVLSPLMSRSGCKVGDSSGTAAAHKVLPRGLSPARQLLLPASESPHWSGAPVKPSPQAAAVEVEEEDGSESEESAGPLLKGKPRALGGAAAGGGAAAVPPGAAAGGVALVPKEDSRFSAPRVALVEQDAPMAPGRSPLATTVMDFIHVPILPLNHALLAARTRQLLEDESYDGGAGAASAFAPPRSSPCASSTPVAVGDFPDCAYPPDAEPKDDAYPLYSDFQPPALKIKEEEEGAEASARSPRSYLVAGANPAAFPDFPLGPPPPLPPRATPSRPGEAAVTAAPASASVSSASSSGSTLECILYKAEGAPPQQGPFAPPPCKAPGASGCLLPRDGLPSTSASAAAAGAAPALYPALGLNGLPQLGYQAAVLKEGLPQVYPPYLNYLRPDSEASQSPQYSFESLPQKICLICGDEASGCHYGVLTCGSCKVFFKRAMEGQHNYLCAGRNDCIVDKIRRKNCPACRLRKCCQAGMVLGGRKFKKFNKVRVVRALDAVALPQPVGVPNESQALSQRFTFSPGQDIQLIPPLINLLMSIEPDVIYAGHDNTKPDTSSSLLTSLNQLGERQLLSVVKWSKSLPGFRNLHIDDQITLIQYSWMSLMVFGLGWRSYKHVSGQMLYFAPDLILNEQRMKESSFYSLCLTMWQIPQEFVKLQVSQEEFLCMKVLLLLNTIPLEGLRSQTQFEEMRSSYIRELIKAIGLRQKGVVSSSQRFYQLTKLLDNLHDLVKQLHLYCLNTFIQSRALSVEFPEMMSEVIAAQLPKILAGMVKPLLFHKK

[4] = molecular target: T3, Androgen receptor (Homo sapiens, UniProt P10275); assay: Binding affinity to recombinant human androgen receptor expressed in baculovirus infected sf9 cells
T3 sequence (P10275 whole entry): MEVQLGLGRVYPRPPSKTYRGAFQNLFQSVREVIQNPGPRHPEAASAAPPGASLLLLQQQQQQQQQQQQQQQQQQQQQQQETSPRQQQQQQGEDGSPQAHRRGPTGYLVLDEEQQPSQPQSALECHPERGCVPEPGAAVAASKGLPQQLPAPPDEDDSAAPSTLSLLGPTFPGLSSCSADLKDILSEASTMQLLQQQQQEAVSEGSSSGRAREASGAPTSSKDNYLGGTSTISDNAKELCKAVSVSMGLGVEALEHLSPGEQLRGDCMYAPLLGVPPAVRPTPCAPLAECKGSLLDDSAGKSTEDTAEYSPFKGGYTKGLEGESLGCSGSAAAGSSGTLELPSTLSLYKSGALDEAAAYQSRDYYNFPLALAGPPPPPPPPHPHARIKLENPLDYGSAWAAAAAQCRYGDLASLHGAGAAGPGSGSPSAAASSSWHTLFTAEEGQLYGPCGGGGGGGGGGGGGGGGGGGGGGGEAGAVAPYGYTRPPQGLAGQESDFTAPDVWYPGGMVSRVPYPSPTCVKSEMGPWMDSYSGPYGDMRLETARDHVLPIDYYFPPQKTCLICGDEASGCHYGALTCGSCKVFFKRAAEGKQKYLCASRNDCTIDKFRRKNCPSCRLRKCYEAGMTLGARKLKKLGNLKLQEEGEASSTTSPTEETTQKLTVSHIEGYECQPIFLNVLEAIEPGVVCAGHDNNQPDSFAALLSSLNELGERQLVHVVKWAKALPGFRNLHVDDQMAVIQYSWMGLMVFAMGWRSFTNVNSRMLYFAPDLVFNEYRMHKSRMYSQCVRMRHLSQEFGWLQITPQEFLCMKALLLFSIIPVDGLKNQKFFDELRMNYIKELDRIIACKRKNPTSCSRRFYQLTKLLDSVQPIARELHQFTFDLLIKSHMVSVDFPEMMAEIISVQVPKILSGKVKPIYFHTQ

[5] = molecular target: T4, Mineralocorticoid receptor (Homo sapiens, UniProt P08235); assay: Binding affinity to recombinant human mineralocorticoid receptor expressed in baculovirus infected sf9 cells
T4 sequence (P08235 whole entry): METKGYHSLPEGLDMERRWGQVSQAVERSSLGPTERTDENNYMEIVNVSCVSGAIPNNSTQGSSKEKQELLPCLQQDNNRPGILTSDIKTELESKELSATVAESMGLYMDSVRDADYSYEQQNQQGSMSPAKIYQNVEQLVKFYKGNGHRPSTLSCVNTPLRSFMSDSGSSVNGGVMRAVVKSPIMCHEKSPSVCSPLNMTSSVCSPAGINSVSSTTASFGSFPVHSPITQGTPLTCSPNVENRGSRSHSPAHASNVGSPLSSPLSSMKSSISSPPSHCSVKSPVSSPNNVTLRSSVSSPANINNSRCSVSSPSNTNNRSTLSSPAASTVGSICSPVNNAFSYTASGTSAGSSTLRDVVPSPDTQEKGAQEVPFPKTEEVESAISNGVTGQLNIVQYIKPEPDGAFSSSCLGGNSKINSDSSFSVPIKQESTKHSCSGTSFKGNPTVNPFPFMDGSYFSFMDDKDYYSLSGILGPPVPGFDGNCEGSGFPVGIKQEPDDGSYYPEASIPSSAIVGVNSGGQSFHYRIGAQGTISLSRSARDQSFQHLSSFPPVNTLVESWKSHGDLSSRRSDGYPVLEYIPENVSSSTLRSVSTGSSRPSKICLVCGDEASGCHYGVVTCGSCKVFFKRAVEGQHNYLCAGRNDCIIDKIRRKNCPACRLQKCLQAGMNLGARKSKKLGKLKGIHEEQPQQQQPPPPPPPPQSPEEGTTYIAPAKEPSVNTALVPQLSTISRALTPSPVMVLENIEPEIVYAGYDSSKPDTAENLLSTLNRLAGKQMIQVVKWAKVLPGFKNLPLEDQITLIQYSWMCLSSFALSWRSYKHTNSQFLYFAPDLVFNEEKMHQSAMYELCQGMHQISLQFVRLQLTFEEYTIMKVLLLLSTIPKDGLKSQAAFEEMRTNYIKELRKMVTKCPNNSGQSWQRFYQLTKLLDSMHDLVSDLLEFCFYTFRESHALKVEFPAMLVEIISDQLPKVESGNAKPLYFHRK

[6] = molecular target: T1, Glucocorticoid receptor; assay: Transrepression activity at glucocorticoid receptorin human HeLa cells assessed as inhibition of TPA-induced collagenase promoter activity by luciferase reporter gene assay; format: cell-based
[7] = molecular target: T1, Glucocorticoid receptor; assay: Transrepression activity at glucocorticoid receptor in human THP1 cells assessed as receptor-mediated anti-inflammatory activity by measuring inhibition of LPS-induced IL-8 production; format: cell-based
[8] = molecular target: T1, Glucocorticoid receptor; assay: Binding affinity to recombinant human glucocorticoid receptor expressed in baculovirus infected sf9 cells

pEC50 [1] | remaining at 0.5 h [2] | IC50 [3] | IC50 [4] | IC50 [5] | IC50 [6] | IC50 [7] | IC50 [8] | SMILES
7.9 | 31% |  |  |  |  |  |  | Cc1ccc2c(NCC(O)(CC(C)(C)c3cc(F)ccc3O)C(F)(F)F)cccc2n1 (stereo unspecified)
 |  | 794 nM | > 1000 nM | > 1000 nM |  |  |  | CCSC[C@@](O)([C@@H](Nc1cccc2nc(C)ccc12)c1ccc(OC)c(F)c1Cl)C(F)(F)F
 |  | > 1000 nM | > 1000 nM | > 1000 nM |  |  |  | CC[C@@H]1C[C@](O)(C(F)(F)F)[C@@H](Nc2cccc3[nH]c(=O)ccc23)c2cc(F)c(F)c(O)c21
6.8 |  | > 1000 nM | > 1000 nM | > 1000 nM | 39.8 nM | 39.8 nM | 126 nM | Cc1ncc2c(N[C@H]3c4ccc(F)c(O)c4C(C)(C)C[C@]3(O)C(F)(F)F)cc(F)cc2n1
7.9 | 86% | 794 nM | > 1000 nM | > 1000 nM | 5.01 nM | 5.01 nM | 12.6 nM | CC[C@@H]1C[C@](O)(C(F)(F)F)[C@@H](Nc2cccc3nc(C)ccc23)c2ccc(F)c(O)c21
7.6 | 13% | 200 nM | > 1000 nM | > 1000 nM | 3.98 nM | 3.98 nM | 2.51 nM | CC(C)(CC(O)(CNc1cccc2c(=O)[nH]ccc12)C(F)(F)F)c1cccc(F)c1O (stereo unspecified)
